Measurements from patent publication US10888608B2, “Costimulation of chimeric antigen receptors by MyD88 and CD40 polypeptides” (BELLICUM PHARMACEUTICALS, INC., priority 2014, dated 2021).
Substitutions are numbered along the chain they refer to. Numbers in names are those of the source. Where two headings read alike, the source gives them in different places.

Assays:
cells = assay: AP1903 amount needed in vitro for effective signaling of cells; type: cell-based
Method: The fixed dose of AP1903 for injection used, for example, may be 0.4 mg/kg intravenously infused over 2 hours. The amount of AP1903 needed in vitro for effective signaling of cells is about 10-100 nM (MW: 1412 Da). This equates to 14-140 μg/L or ˜0.014-0.14 mg/kg ([…]). The dosage may vary according to the application, and may, in certain examples, be more in the range of 0.1-10 nM, or in the range of 50-150 nM, 10-200 nM, 75-125 nM, 100-500 nM, 100-600 nM, 100-700 nM, 100-800 nM, or 100-900 nM. Doses up to 1 mg/kg were well-tolerated in the Phase I study of AP1903 provided above.

[1] = system: iC9-CD19.ζ-MC CAR-modified T cells; assay: Raji tumor NSG mouse model with iC9-CD19.ζ-MC CAR T cells and rimiducid (Example 19); type: in vivo, mice
Method: FIG. 40A-FIG. 40C provide results of the enhancement of CD19 CAR-T cell efficacy in vivo by the MyD88/CD40 chimeric costimulatory molecule using the constructs of FIG. 37A-FIG. 37E. FIG. 40A: NSG mice (n=5 per group) were engrafted with Raji-luciferase tumor cells and then treated with non-transduced (NT) or iC9-CD19.ζ-MC CAR-modified T cells on day 3. Tumor growth was measured by IVIS imaging and calculated by whole-body BLI, as shown in photos. FIG. 40B provides a graph of bioluminescent counts (BLI counts) and FIG. 40C provides a graph of (Kaplan-Meier analysis from (A)).
FIG. 41A-FIG. 41C provide results of assays of the titration of inducible chimeric Caspase-9 expressing cells, using the constructs of FIG. 37A-FIG. 37E, with rimiducid. FIG. 41A and FIG. 41B: NSG mice (n=5 per group) were engrafted with CD19^+ Raji lymphoma cells and treated with 5×10^6 iC9-CD19.ζ-MC/luciferase-transduced T cells at day 3. After 6 days, mice were treated i.p. with log dilutions of rimiducid (0.00005-5 mg/kg). BLI of CAR-T cells was assessed prior to rimiducid treatment and at 24 and 48 hours post-injection. […] FIG. 41C provides graphs of serum cytokine levels, which were measured from each group before (black line) and 24 hours post-administration (gray line) of rimiducid. *P-value=<0.01.
5×10^5 Raji tumor cells were injected i.v. into NSG mice. On day 3, CD19 CAR-modified T cells were injected i.v. and bioluminescence (BLI) was measured for either tumor or T cells on a weekly basis by IVIS imaging. […]
FIG. 40 provides the results of mouse in vivo efficacy assays using the various CD19-specific CAR constructs. […] Tumor growth was measured by IVIS imaging and calculated by whole-body BLI (B). […]
FIG. 41 provides the results of mouse in vivo assays including CD19-specific CAR constructs and the Caspase-9 safety switch. […] BLI of CAR-T cells was assessed prior to rimiducid treatment and at 24 and 48 hours post-injection. C) Serum cytokine levels were measured from each group before (black line) and 24 hours post-administration (orange line) of rimiducid. *P-value=<0.01.

[2] = cited from earlier work
CD3^+ ΔCD19^+ cells = assay: Phase I clinical trial: iCasp9^+ allodepleted T cells after haplo-CD34^+ stem cell transplantation, AP1903 given for GvHD; type: in vivo, human
Excerpt: This example presents results of a phase 1 clinical trial using an alternative suicide gene strategy. Briefly, donor peripheral blood mononuclear cells were co-cultured with recipient irradiated EBV-transformed lymphoblastoid cells (40:1) for 72 hrs., allodepleted with a CD25 immunotoxin and then transduced with a retroviral supernatant carrying the iCasp9 suicide gene and a selection marker (ΔCD19); ΔCD19 allowed enrichment to >90% purity via immunomagnetic selection.
Patients developing grade 1 GvHD were treated with 0.4 mglkg AP1903 as a 2-hour infusion. Protocols for administration of AP1903 to patients grade 1 GvHD were established as follows. Patients developing GvHD after infusion of allodepleted T cells are biopsied to confirm the diagnosis and receive 0.4 mg/kg of AP1903 as a 2 h infusion. […] Patients developing grades 2-4 GvHD were administered standard systemic immunosuppressive therapy per institutional guidelines, in addition to the AP1903 dimerizer drug.
Three patients received iCasp9^+ T cells after haplo-CD34^+ stem cell transplantation (SCT), at dose levels between about 1×10^6 to about 3×10^6 cells/kg.

Caspase-9 = assay: Caspase mutant classes: basal activity and ligand IC50; set-up: species or system human; conditions: mutants marked *, predicted
Excerpt: Modified Caspase-9 Polypeptides with Lower Basal Activity and Minimal Loss of Ligand IC50
Even though homo-dimerization of wild-type initiator Caspase-9 is energetically unfavorable, making them mostly monomers in solution [14-16], the low-level inherent basal activity of unprocessed Caspase-9 [15, 17] is enhanced in the presence of the Apaf-1-based “apoptosome”, its natural allosteric regulator [6]. Moreover, supra-physiological expression levels and/or co-localization could lead to proximity-driven dimerization, further enhancing basal activation. The modified cells of the present application may comprise nucleic acids coding for a chimeric Caspase-9 polypeptide having lower basal signaling activity. Polynucleotides comprising Caspase-9 mutants with lower basal signaling may be expressed in the modified cells used for cell therapy herein. […] In some examples, the amount of dimerizer administered may be determined as an amount designed to remove the highest amount, at least 80% or 90% of the modified cells. In other examples, the amount of dimerizer administered may be determined as an amount designed to remove only a portion of the modified cells, in order to alleviate negative symptoms or conditions, while leaving a sufficient amount of therapeutic modified cells in the patient, in order to continue therapy. […]

[3] = rimiducid administered at objective evidence of sCRS

CC[C@H](C(=O)N1CCCC[C@H]1C(=O)O[C@H](CCc1ccc(OC)c(OC)c1)c1cccc(OCC(=O)NCCNC(=O)COc2cccc([C@@H](CCc3ccc(OC)c(OC)c3)OC(=O)[C@@H]3CCCCN3C(=O)[C@@H](CC)c3cc(OC)c(OC)c(OC)c3)c2)c1)c1cc(OC)c(OC)c(OC)c1 (relative stereo) [AP1903, 2-Piperidinecarboxylic acid, 1-[(2S)-1-oxo-2-(3,4,5-trimethoxyphenyl)butyl]-, 1,2-ethanediylbis [imino(2-oxo-2,1-ethanediyl)oxy-3,1-phenylene[(1R)-3-(3,4-dimethoxyphenyl)propylidene]] ester, [2S-[1(R*),2R*[S*[S*[1(R*),2R*]]]]]-(9Cl)]
amount needed in vitro for effective signaling of cells (cells): 10 to 100 nM
CAR T cell elimination on titration ([1]; iCaspase-9 safety switch, titrated rimiducid): partial T cell elimination that still preserved CAR-T cell function
resolution of clinical sCRS [1, 3]: complete resolution of clinical sCRS without compromising tumor control
time to normalization of cytokines [1, 3]: ≤ 24 h
plasma levels versus dose ([2]; 0.01-1.0 mg/kg): directly proportional to dose
plasma levels, % of maximal concentration ([2]; 2 hours post-dose): ~7%
plasma levels, % of maximal concentration ([2]; 10 hours post-dose): ~1%
serious adverse events ([2]; Phase 1 study in volunteers): No serious adverse events occurred
severity of adverse events ([2]; Phase 1 study in volunteers): mild in severity
doses well-tolerated ([2]; Phase I study): up to 1 mg/kg
mean Cmax / plasma concentrations ([2]; single doses 0.01-1.0 mg/kg infused IV over 2 hours): 10 to 1275 ng/mL
adverse events possibly related to AP1903 ([2]; vasodilatation (facial flushing), 1 volunteer at 1.0 mg/kg): Only one adverse event was considered possibly related to AP1903
time to resolution of skin and liver aGvHD (CD3^+ ΔCD19^+ cells; after AP1903 administration): ≤ 24 h
ablation of CD3^+ ΔCD19^+ cells (CD3^+ ΔCD19^+ cells; within 30 minutes of infusion, patients with grade I/II aGvHD): > 90%
further reduction of CD3^+ ΔCD19^+ cells (CD3^+ ΔCD19^+ cells; within 24 hours): further log reduction

B1: N405Q-S144Aco: Caspase-9 double mutant, class predicted (protein, UniProt P55211 1-416, looked up, variant N405Q S144A)
chain: MDEADRRLLRRCRLRLVEELQVDQLWDALLSRELFRPHMIEDIQRAGSGSRRDQARQLIIDLETRGSQALPLFISCLEDTGQDMLASFLRTNRQAAKLSKPTLENLTPVVLRPEIRKPEVLRPETPRPVDIGSGGFGDVGALEALRGNADLAYILSMEPCGHCLIINNVNFCRESGLRTRTGSNIDCEKLRRRFSSLHFMVEVKGDLTAKKMVLALLELAQQDHGALDCCVVVILSHGCQASHLQFPGAVYGTDGCPVSVEKIVNIFNGTSCPSLGGKPKLFFIQACGGEQKDHGFEVASTSPEDESPGSNPEPDATPFQEGLRTFDQLDAISSLPTPSDIFVSYSTFPGFVSWRDPKSGSWYVETLDDIFEQWAHSEDLQSLLLRVANAVSVKGIYKQMPGCFQFLRKKLFFKTS
modifications: codon optimized
notes: Caspase-9 double mutant, class predicted
Basal Activity (Caspase-9): Decreased

B2: N405Q-T317Sco: Caspase-9 double mutant, class predicted (protein, UniProt P55211 1-416, looked up, variant N405Q T317S)
chain: B1 chain with A144S, T317S
modifications: codon-optimized
notes: as for B1
Basal Activity (Caspase-9): Decreased
